Measurements as given in patent publication US11878008B2, “Composition for preventing or treating atopic dermatitis” (AMOREPACIFIC CORPORATION, priority 2017, dated 2024).
“Also recorded” adds a separate entry of the source.

How the values were obtained:
[1] = Change in body temperature after oral administration in mice; assay type: in vivo, Balb/c mice; settings: for change in body temperature, dose dependence: up to 4 hours, AMG 517 0.03, 0.1, 0.3 mg/kg, compound of Formula 1 3, 10, 30 mg/kg, FIGS. 2A, 2B
Excerpt: Meanwhile, when the same drug was orally administered, a concentration-dependent increase in body temperature due to TRPV1 antagonism was observed as expected (see FIGS. 2A and 2B).

[2] = rats; cited from earlier work
[3] = rats, oral dose of 3 mg/kg; cited from earlier work
[4] = C57BL/6, mouse, in vivo, 2 h
Method: As described above, AMG 517, a representative reference drug as a TRPV1 antagonist, and the compound of Formula 1 of the present invention were tested for the increase in body temperature during transdermal administration.

[5] = cited from earlier work
[6] = Change in body temperature in healthy volunteers after oral administration; assay type: in vivo, human; settings: oral 5 mg or 10 mg once a day for 8 days; healthy adult volunteers; FIGS. 6A, 6B
Method: Ten healthy adult volunteers were divided into two groups, and the compound of Formula 1 was orally administered to the volunteers in each of the groups at a dose of 5 mg or 10 mg once a day for 8 days. Thereafter, a placebo was administered to the two volunteers in each of the groups, and the body temperatures were measured for 14 days. Then, the mean body temperature of the volunteers and a change in body temperature were determined.

[7] = Change in body temperature in healthy volunteers after percutaneous administration; assay type: in vivo, human; settings: percutaneous application to back skin, 7 to 30 days
Excerpt: The composition of Example 1 including the compound of Formula 1 was percutaneously applied to healthy volunteers other than the patients with atopic dermatitis to check a change in body temperature.
The 24 healthy adult volunteers were divided into three groups, and the volunteers in each of the groups were then randomly allocated into a test group of 6 volunteers (Example 1) and a placebo group of 2 volunteers (Comparative Example 1). The same clinician applied the composition onto the volunteers' back skins at a dose of 5, 15, 50 mg per 5 g every morning according to a predetermined administration method. In this case, the composition was applied for 7, 15, 30 days with a size of 25×40 cm and an area of 1,000 cm^2.
A range of the body temperatures measured for the 24 volunteers in a clinical trial period was in a range of 35.4 to 37.3° C. The results of the changes in body temperatures from the baseline before the drug administration in each of the groups are as listed in the following Table 13.

SMILES	change in body temperature at lowest dose ([1]; 0.03 mg/kg)	change in body temperature, dose dependence [1]	effective concentration to maximize analgesic efficacy [2]	body temperature increase [3]	increase in body temperature [4]	concentration dependence of hyperthermia ([5]; oral administration for treatment of dental pain/toothache)	body temperature increased to ([5]; oral, group administered a dose of 25 mg)	body temperature change, dose dependence [6]	clinically significant findings associated with changes in body temperature [7]
CC(=O)Nc1nc2c(Oc3cc(-c4ccc(C(F)(F)F)cc4)ncn3)cccc2s1 [AMG 517]	significantly increased body temperature	increased body temperature in a dose-dependent manner	less than 0.3 mg/kg	about 1.3 °C	~1.59 °C	concentration-dependent side effect of hyperthermia; also recorded: increased body temperature, which was proportional to a serum AMG 517 concentration	39.9 °C		
CCCc1nc(C(F)(F)F)ccc1/C=C/C(=O)N[C@H](C)c1cc(F)c(NS(C)(=O)=O)c(F)c1 [compound of Formula 1, (R)-N-[1-(3,5-difluoro-4-methanesulfonylamino-phenyl)-ethyl]-3-(2-propyl-6-trifluoromethyl-pyridin-3-yl)-acrylamide]		increased body temperature in a dose-dependent manner			~0.84 °C			increased the body temperature in a dose-dependent manner; also recorded: increased body temperature (hyperthermia) were caused in a concentration-dependent manner	such an increase in body temperature was not observed
